{"source": "paper PMC7058083", "about": "“Structural basis of ligand binding modes at the human formyl peptide receptor 2” (Nature Communications, 2020)", "key": {"[1]": {"test_system": "FPR2 (wild type and mutant V113A)", "test": "cAMP inhibition assay, HEK293 cells, 5 μM forskolin", "format": "cell-based, human", "excerpt": "contribute to the effect of mutations on ligand binding and receptor signaling in addition to the direct disruption of receptor-ligand interaction.\nTo make the above clear, the statement “The effect of these mutations on ligand binding and receptor signaling could be explained by direct disruption of the receptor-ligand interaction, destabilization of ligand-binding pocket conformation, and/or impairment of global conformational rearrangement required for receptor activation” has been added to the […]\n3) The authors use the crystal structures as an opportunity to dock other ligands with the their experimentally determined structure of FPR2. With the exception of LXA4, the docking of formyl peptides with mutagenesis experiments produce insightful results for fMLFK. For LXA4, more work is necessary to justify the docking pose. Otherwise, it is my opinion that it should […]\n— We appreciated the reviewer’s comment. Functional assays for LXA4 are challenging due to the poor ability of this ligand to trigger calcium mobilization and IP accumulation. To verify the predicted binding mode of LXA4 in FPR2, we have performed additional assays by […]\nfold while having minimal effect on the LXA4-induced cAMP reduction. […]\nmodel of LXA4. […]\nwas detected and the concentrations were shown. […]\n5) How was the omit map calculated to remove any bias for the agonist in SFig. […]"}, "FPR2 [2]": {"test_system": "FPR2", "parameters": "method as in PMID 24285541", "settings": "cited from earlier work", "procedure": "To investigate the binding mode of formyl peptide in FPR2, molecular docking of this tripeptide to the FPR2 crystal structure was performed (Supplementary Data 2). […] It was also reported that the polar residue D281^7.32 was crucial for the interaction of FPR2 with certain formyl peptides. It was proposed that this negatively charged residue in FPR2 was repulsive with the C-terminal COO− group of fMLF and the negatively charged glutamate residue in fMLFE, but forms a stable interaction with the p ..."}, "FPR2 [3]": {"test_system": "FPR2", "parameters": "method as in 3 sources, ref 4 = [4]; PMID 24285541; doi:10.1074/jbc.M113.509216; 4. He HQ Troksa EL Caltabiano G Pardo L Ye RD Structural determinants for the interaction of formyl peptide receptor 2 with peptide ligands J. Biol. Chem. 2014 289 2295 2306 10.1074/jbc.M113.509216 24 ||| ref 34 = [34]; PMID 11818455; 34. Bae YS Kim Y Park JC Suh PG Ryu SH The synthetic chemoattractant peptide, Trp-Lys-Tyr-Met-Val-D-Met, enhances monocyte survival via PKC-dependent Akt activation J. Leukoc. Biol. 2002 71 329 338 11 ||| ref 35 = [35]; PMID 11285256; doi:10.1074/jbc.M007769200; 35. Christophe T The synthetic peptide Trp-Lys-Tyr-Met-Val-Met-NH 2 specifically activates neutrophils through FPRL1/lipoxin A 4 receptors and is an agonist for the orphan monocyte-expressed chemoattr", "settings": "cited from earlier work"}, "FPR2 [4]": {"test_system": "FPR2", "settings": "cited from earlier work", "excerpt": "This movement breaks the hydrogen bonds between the C-terminal NH2- group of the peptide and the receptor residues D106^3.33 and R201^5.38, and disrupts the polar interaction network establishe ..."}}, "data": [{"compound": "CCCCC[C@H](O)/C=C/C=C\\C=C\\C=C\\[C@@H](O)[C@@H](O)CCCC(=O)O", "note": "[LXA4, lipoxin A4]", "values": [{"measurement": "effect of mutation on ligand-induced cAMP reduction", "setting": "[1]; FPR2 V113A, 30 min", "value": "minimal"}, {"measurement": "change in intracellular cAMP", "setting": "[1]; wild-type FPR2, 30 min", "value": "measurable changes"}]}, {"compound": "N-formyl-Met-Leu-Phe [fMLF]", "values": [{"measurement": "lower binding affinity", "setting": "FPR2 [2]; FPR2 compared to FPR1", "value": "over 400 fold"}, {"measurement": "lower potency in inducing Ca2+ mobilization", "setting": "FPR2 [3]; FPR2 compared to FPR1", "value": 2000, "unit": "fold"}]}, {"compound": "WKYMVM-NH2", "values": [{"measurement": "reduction in EC50 in stimulating phosphoinositide hydrolysis relative to WKYMVm", "setting": "FPR2 [4]", "value": "over 100 fold"}]}, {"compound": "fMLFII [formyl pentapeptide agonist]", "values": [{"measurement": "binding affinity over fMLF at FPR2", "setting": "FPR2 [2]", "value": "increased"}, {"measurement": "agonist potency over fMLF at FPR2", "setting": "FPR2 [3]", "value": "increased"}]}]}
